# Columns and labels:
# [1] = biological target: T1, Norepinephrine Transporter (NET) (Homo sapiens, UniProt P23975); assay: Radioligand binding assay, [125I] RTI-55, Norepinephrine Transporter; settings: human recombinant, MDCK cell membranes; [125I] RTI-55 0.20 nM; 3 hours at 4° C.; read-out: ˜IC50, inhibition of binding to NET
# T1 construct: expressed in transfected cells; host or cells: MDCK cells (membrane preparations)
# Procedure: (§1) Inhibition of binding to the Dopamine Transporter (DAT) and Norepinephrine Transporter (NET) by MSI-1436 was determined in radioligand binding assays using human recombinant proteins expressed in CHO-K1 or MDCK cells, respectively. Membrane preparations were incubated with [^125I] RTI-55 (0.15 nM for DAT, 0.20 nM for NET) in the presence of 1436 (0.005 μM to 50 μM) for 3 hours at 4° C. IC50 values were determined as in PTP1B assays (See Table 2).
# [2] = test system: male AKR/J mice on 60% fat diet; assay: Histology of adipose tissue in mice on 60% fat diet; type: in vivo; settings: mouse on 60% fat diet; i.p. q7dx4, 10 then 5 mg/kg
# Text: (§2) Mice and Study Design. At weaning, male AKR/J mice from Jackson Laboratories (Bar Harbor, Me., USA) were placed on a 10%, 45%, or 60% fat kcal diet (Research Diets, Inc., New Brunswick, N.J., USA). Mice were weighed weekly and treatment began after 13-14 weeks of access to the different fat diets. Immediately before the start of treatment, mice from all three diets were randomly subdivided further into three groups within the same fat composition diet with an even weight distribution. All mice were dosed (i.p. route) on a q7dx4 schedule, where the first dose of 1436 was 10 mg/kg and all remaining doses were 5 mg/kg. Saline-treated animals were administered 10 mL/kg. Pair-fed animals were dosed with saline (10 mL/kg) on the same q7dx4 schedule on a 1-day stagger from the other groups. As a measure of food consumption, remaining food was weighed daily. Pair-fed groups were allotted the exact amount of food consumed by 1436-treated groups in the 24 hours prior. All procedures involving mice were performed in accordance with protocols approved by the Institutional Animal Care and Use Committee.
# Histology. Intrascapular brown adipose tissue was fixed in 10% zinc formalin (Fisher Scientific, Kalamazoo, Mich., USA) for 48 hours and transferred to 70% EtOH. Tissues were embedded in paraffin and […] sections were applied to glass microscope slides. […]
# [3] = biological target: T2, CHO-K1 cells expressing dopamine transporters (Homo sapiens, UniProt Q01959); assay: Cellular uptake of [3H] Dopamine; type: cell-based
# T2 construct: expressed in transfected cells; host or cells: CHO-K1 cells
# Procedure: (§3) After 10-minute incubations of the cells with radioactive ligands in the presence of compound at room temperature, quantitation of [^3H] Dopamine or [^3H] […] Significance criteria for antagonism was met if there was ≧50% inhibition of uptake as compared to the induced response of nomifensine (DAT) or desipramine (NET).
# [4] = biological target: T3, MDCK cells expressing norepinephrine transporters (Homo sapiens, UniProt P23975); assay: Cellular uptake of [3H] Norepinephrine; type: cell-based
# T3 construct: expressed in transfected cells; host or cells: MDCK cells
# Procedure: as §3
# HepG2 cells = assay: Insulin receptor-beta phosphorylation in HepG2 cells (immunoprecipitation, Western blot); type: cell-based
# Procedure: HepG2 cells (immortalized hepatocyte cells) were treated with 10 nM insulin, […], neither, or both for either 30 minutes or 3 hours in vitro. […] No difference in the amounts of insulin receptor-beta (IR-beta) was noted (Panel A). […] This effect was slightly diminished at 3 hours.
# [5] = biological target: T4, Dopamine Transporter (DAT) (Homo sapiens, UniProt Q01959); assay: Radioligand binding assay, [125I] RTI-55, Dopamine Transporter; settings: human recombinant, CHO-K1 cell membranes; [125I] RTI-55 0.15 nM; 3 hours at 4° C.; read-out: ˜IC50, inhibition of binding to DAT
# T4 construct: expressed in transfected cells; host or cells: CHO-K1 cells (membrane preparations)
# Procedure: as §1
# [6] = test system: male AKR/J mice on 10%, 45% or 60% fat kcal diet; assay: Body composition of diet induced obese mice at end of study; type: in vivo; settings: i.p. q7dx4, 10 then 5 mg/kg
# Text: as §2, with “Pair-fed groups were allotted the exact amount of food consumed by 1436-treated groups in the 24 hours prior. All procedures involving mice were performed in accordance with protocols approved by the Institutional Animal Care and Use Committee.” left out
# Body Composition. Body composition (percent moisture, fat, protein and ash) was determined according to methods described with modifications (Official Methods of Analysis of AOAC INTERNATIONAL, 2000). […] Protein was determined through the combustion method for nitrogen detection and a factor of 6.25 was used to convert percent nitrogen to percent protein. To determine ash, samples were ignited at 550° C. for 5 hours and quantified gravimetrically.
# TCPTP = biological target: T5, TCPTP (Homo sapiens, UniProt P17706); assay: TCPTP enzyme inhibition assay (DiFMUP substrate, spectrofluorimetric); type: biochemical
# T5 construct: MDS Pharma (contract assay); host or cells: E. coli
# T5 sequence (P17706 1-415): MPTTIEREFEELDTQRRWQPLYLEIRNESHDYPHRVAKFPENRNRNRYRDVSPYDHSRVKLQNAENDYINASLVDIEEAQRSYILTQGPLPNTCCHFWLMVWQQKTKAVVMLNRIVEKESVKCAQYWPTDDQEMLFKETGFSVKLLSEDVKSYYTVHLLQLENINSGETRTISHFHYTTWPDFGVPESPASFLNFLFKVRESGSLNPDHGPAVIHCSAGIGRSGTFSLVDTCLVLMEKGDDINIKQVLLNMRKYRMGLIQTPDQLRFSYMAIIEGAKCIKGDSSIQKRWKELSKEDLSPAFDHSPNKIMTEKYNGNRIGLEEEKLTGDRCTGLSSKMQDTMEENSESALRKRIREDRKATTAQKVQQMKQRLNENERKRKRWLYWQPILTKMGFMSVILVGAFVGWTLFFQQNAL
# Procedure: In the PTP1B assay, phosphatase activity was quantitated through ELISA analysis of remaining tyrosine phosphopeptide after 30-minute incubations at room temperature with various concentrations of 1436 (0.05 μM to […]). […] The TCPTP assay required a 15-minute preincubation of enzyme and substrate at 37° C. followed by 60-minute incubations at 37° C. with various concentrations of 1436 (0.5 μM to 50 μM). TCPTP activity was assessed by spectrofluorimetric quantitation of DiFMU.
# ob/ob mice = assay: Ex vivo liver IRS-1 phosphorylation in ob/ob mice (effect on PTP1B); settings: single dose 10 mg/kg i.p., 24 hours after treatment, livers harvested 2 min after portal vein insulin
# Procedure: To examine the effect of MSI-1436 on PTP1B ex vivo, ob/ob mice were treated with either vehicle, MSI-1436 (single dose, 10 mg/kg, i.p.) or pair-fed control mice (n=4 per group). Twenty-four hours after the single treatment, mice were anesthetized and portal vein was exposed via an incision. Insulin or phosphate buffered saline (PBS) was injected into the portal vein and livers were harvested 2 min after the injection. Livers were lysed and lysates were immunoprecipitated with anti-insulin receptor substrate-1 (IRS-1) and then blotted for phosphotyrosine with the resultant blots representing phosphorylated insulin receptor substrate-1 (P-IRS-1). The blots were analyzed using imaging software.
# [7] = test system: male AKR/J mice on 10%, 45% or 60% fat kcal diet; assay: Induction of weight loss in diet induced obese mice; type: in vivo
# Text: as §2
# T2 sequence (Q01959 whole entry): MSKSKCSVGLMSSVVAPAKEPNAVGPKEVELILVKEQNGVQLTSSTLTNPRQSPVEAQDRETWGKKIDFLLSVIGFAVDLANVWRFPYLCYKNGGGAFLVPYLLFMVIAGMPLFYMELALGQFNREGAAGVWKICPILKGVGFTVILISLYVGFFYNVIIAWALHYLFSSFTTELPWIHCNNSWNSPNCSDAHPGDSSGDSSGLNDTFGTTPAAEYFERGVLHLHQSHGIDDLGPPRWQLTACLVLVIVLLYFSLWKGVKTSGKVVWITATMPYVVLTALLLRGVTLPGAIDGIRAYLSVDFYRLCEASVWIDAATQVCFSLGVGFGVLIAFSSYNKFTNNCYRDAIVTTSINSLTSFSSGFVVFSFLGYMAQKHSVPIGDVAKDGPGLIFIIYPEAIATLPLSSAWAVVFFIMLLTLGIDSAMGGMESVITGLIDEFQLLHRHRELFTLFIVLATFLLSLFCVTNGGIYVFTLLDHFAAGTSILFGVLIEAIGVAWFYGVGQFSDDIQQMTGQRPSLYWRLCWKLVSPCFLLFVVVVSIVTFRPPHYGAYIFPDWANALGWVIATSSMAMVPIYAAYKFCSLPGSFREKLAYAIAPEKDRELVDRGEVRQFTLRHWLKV
# T3 sequence (P23975 whole entry): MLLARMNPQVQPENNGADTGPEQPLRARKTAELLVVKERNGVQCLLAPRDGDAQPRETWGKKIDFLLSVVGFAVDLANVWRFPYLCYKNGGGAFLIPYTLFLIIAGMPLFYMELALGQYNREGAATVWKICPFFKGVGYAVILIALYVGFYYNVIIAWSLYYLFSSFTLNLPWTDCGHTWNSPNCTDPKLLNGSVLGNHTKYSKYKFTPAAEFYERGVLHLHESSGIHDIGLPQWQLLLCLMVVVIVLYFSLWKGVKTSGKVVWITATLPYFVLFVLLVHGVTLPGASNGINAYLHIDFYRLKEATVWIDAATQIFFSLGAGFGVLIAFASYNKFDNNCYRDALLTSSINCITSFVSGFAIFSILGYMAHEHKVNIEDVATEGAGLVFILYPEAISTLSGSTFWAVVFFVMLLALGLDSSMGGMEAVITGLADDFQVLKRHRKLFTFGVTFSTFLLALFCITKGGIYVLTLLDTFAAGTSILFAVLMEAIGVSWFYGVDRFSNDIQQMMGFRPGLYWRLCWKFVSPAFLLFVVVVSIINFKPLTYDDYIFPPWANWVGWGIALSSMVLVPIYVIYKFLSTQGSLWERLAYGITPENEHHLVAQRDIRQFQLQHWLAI
# T4 sequence (Q01959 whole entry): as the sequence (Q01959 whole entry) above
# T1 sequence (P23975 whole entry): as the sequence (P23975 whole entry) above
compound,measurement,setting,value
CC(C)[C@@H](CC[C@@H](C)[C@H]1CC[C@H]2[C@@H]3[C@H](O)C[C@H]4C[C@@H](NCCCNCCCCNCCCN)CC[C@]4(C)[C@H]3CC[C@]12C)OS(=O)(=O)O [compound 1436],IC50,[1],3240 nM
same,"amount of fat in brown adipose tissue (BAT), histology",[2],lost all of the fat gained by the 60% diet
same,"amount of fat in white adipose tissue (WAT), histology",[2],lost all of the fat gained by the 60% diet
same,inhibition at 0.05 µM,"[3]; CHO-K1, 1436 0.05 μM",1%
same,inhibition at 0.25 µM,"[3]; CHO-K1, 1436 0.25 μM",39%
same,inhibition at 0.5 µM,"[3]; CHO-K1, 1436 0.5 μM",57%
same,inhibition at 2.5 µM,"[3]; CHO-K1, 1436 2.5 μM",81%
same,inhibition at 5 µM,"[3]; CHO-K1, 1436 5.0 μM",94%
same,IC50,"[3]; CHO-K1 cells, 10-minute incubation at room temperature, read-out: IC50, inhibition of Dopamine uptake",422 nM
same,IC50,"[4]; MDCK cells, 10-minute incubation at room temperature, read-out: IC50, inhibition of Norepinephrine uptake",718 nM
same,inhibition at 0.05 µM,"[4]; MDCK, 1436 0.05 μM",22%
same,inhibition at 0.25 µM,"[4]; MDCK, 1436 0.25 μM",26%
same,inhibition at 0.5 µM,"[4]; MDCK, 1436 0.5 μM",33%
same,inhibition at 2.5 µM,"[4]; MDCK, 1436 2.5 μM",78%
same,inhibition at 5 µM,"[4]; MDCK, 1436 5.0 μM",95%
same,"IR-beta phosphorylation, insulin plus MSI-1436 versus insulin alone","HepG2 cells; 10 nM insulin and 10 µM MSI-1436, 30 minutes",increased IR-beta phosphorylation
same,"IR-beta phosphorylation, MSI-1436 alone","HepG2 cells; 10 µM MSI-1436 without insulin, 30 minutes or 3 hours",did not induce phosphorylation
same,IC50,[5],1740 nM
same,% body fat (body composition at end of study),"[6]; all diets (10%, 45%, 60% fat)",lose significant % body fat
same,loss of body fat versus pair-fed groups,[6],trend for greater loss of body fat
same,inhibition of TCPTP at the concentrations tested,TCPTP; 1436 0.5 μM to 50 μM,no inhibition
same,IC50,"TCPTP; human recombinant protein expressed in E. Coli, DiFMUP 10 μM, 60-minute incubation at 37° C., estimated",> 50000 nM
same,insulin-induced phosphorylation of IRS-1 in liver,ob/ob mice,enhanced the insulin-induced phosphorylation of IRS-1
same,body weight after treatment,"[7]; 10%, 45% and 60% fat diet groups, i.p. q7dx4, first dose 10 mg/kg, remaining 5 mg/kg, three weeks",lost weight
same,effect on weight loss versus pair-fed group,"[7]; i.p. q7dx4, 10 then 5 mg/kg, greatest in 60% fat group (p value 0.013)",greater than the effect of diet alone
